Measured values taken from patent US9486435B2, “(Het)aryl-p-quinone derivatives for treatment of mitochondrial diseases” (Edison Pharmaceuticals, Inc., priority 2008, dated 2016).

Tests used:
Type in all cases: cell-based
[1] = tested on: Human dermal fibroblasts from Friedreich's Ataxia patients; experiment: Rescue of BSO-stressed FRDA fibroblasts (Calcein AM viability); conditions: FRDA fibroblasts GM04078, BSO stress, read-out: protection against FRDA, EC50
Procedure: (§1) An initial screen was performed to identify compounds effective for the amelioration of redox disorders. Test samples, 4 reference compounds (Idebenone, decylubiquinone, Trolox and α-tocopherol acetate), and solvent controls were tested for their ability to rescue FRDA fibroblasts stressed by addition of L-buthionine-(S,R)-sulfoximine (BSO), as described in Jauslin et al., Hum. Mol. Genet. 11(24):3055 (2002), Jauslin et al., FASEB J. 17:1972-4 (2003), and International Patent Application WO 2004/003565. […] This specific BSO-mediated cell death can be prevented by administration of antioxidants or molecules involved in the antioxidant pathway, such as α-tocopherol, selenium, or small molecule glutathione peroxidase mimetics. However, antioxidants differ in their potency, i.e. the concentration at which they are able to rescue BSO-stressed FRDA fibroblasts.
MEM (a medium enriched in amino acids and vitamins, catalog no. 1-31F24-I) and Medium 199 (M199, catalog no. 1-21F22-I) with Earle's Balanced Salts, without phenol red, were purchased from Bioconcept. Fetal Calf Serum was obtained from PAA Laboratories. Basic fibroblast growth factor and epidermal growth factor were purchased from PeproTech. Penicillin-streptomycin-glutamine mix, L-buthionine (S,R)-sulfoximine, (+)-α-tocopherol acetate, decylubiquinone, and insulin from bovine pancreas were purchased from Sigma. Trolox (6-hydroxy-2,5,7,8-tetramethylchromane-2-carboxylic acid) was obtained from Fluka. Idebenone was obtained from Chemo Iberica. Calcein AM was purchased from Molecular Probes. Cell culture medium was made by combining 125 ml M 199 EBS, 50 ml Fetal Calf Serum, 100 U/ml penicillin, 100 μg/ml streptomycin, 2 mM glutamine, 10 μg/ml insulin, 10 ng/ml EGF, and 10 ng/ml bFGF; MEM EBS was added to make the volume up to 500 ml. A 10 mM BSO solution was prepared by dissolving 444 mg BSO in 200 ml of medium with subsequent filter-sterilization. During the course of the experiments, this solution was stored at +4° C. The cells were obtained from the Coriell Cell Repositories (Camden, N.J.; repository number GM04078) and grown in 10 cm tissue culture plates. Every third day, they were split at a 1:3 ratio.
The test samples were supplied in 1.5 ml glass vials. The compounds were diluted with DMSO, ethanol or PBS to result in a 5 mM stock solution. Once dissolved, they were stored at −20° C. Reference antioxidants (Idebenone, decylubiquinone, α-tocopherol acetate and trolox) were dissolved in DMSO.
(§2) Test samples were screened according to the following protocol: A culture with FRDA fibroblasts was started from a 1 ml vial with approximately 500,000 cells stored in liquid nitrogen. Cells were propagated in 10 cm cell culture dishes by splitting every third day in a ratio of 1:3 until nine plates were available. Once confluent, fibroblasts were harvested. For 54 micro titer plates (96 well-MTP) a total of 14.3 million cells (passage eight) were re-suspended in 480 ml medium, corresponding to 100 μl medium with 3,000 cells/well. The remaining cells were distributed in 10 cm cell culture plates (500,000 cells/plate) for propagation. The plates were incubated overnight at 37° C. in a atmosphere with 95% humidity and 5% CO2 to allow attachment of the cells to the culture plate.
(§3) MTP medium (243 μl) was added to a well of the microtiter plate. The test compounds were unfrozen, and 7.5 μl of a 5 mM stock solution was dissolved in the well containing 243 μl medium, resulting in a 150 μM master solution. Serial dilutions from the master solution were made. The period between the single dilution steps was kept as short as possible (generally less than 1 second).
Plates were kept overnight in the cell culture incubator. The next day, 10 μl of a 10 mM BSO solution were added to the wells, resulting in a 1 mM final BSO concentration. Forty-eight hours later, three plates were examined under a phase-contrast microscope to verify that the cells in the 0% control (wells E1-H1) were clearly dead. […]

[2] = tested on: human dermal fibroblasts from Huntington's patients; experiment: Rescue of BSO-stressed fibroblasts from Huntington's patients; conditions: Fibroblast, Huntington's fibroblasts GM 04281, BSO stress, read-out: protection against Huntington's, EC50
Procedure: as §1, §2, §3
(§4) Plates were kept overnight in the cell culture incubator. The next day, 10 μl of a 10 mM BSO solution were added to the wells, resulting in a 1 mM final BSO concentration. Forty-eight hours later, three plates were examined under a phase-contrast microscope to verify that the cells in the 0% control (wells E1-H1) were clearly dead. The medium from all plates was discarded, and the remaining liquid was removed by gently tapping the plate inversed onto a paper towel.
(§5) 100 μl of PBS containing 1.2 μM Calcein AM were then added to each well. The plates were incubated for 50-70 minutes at room temperature. After that time the PBS was discarded, the plate gently tapped on a paper towel and fluorescence (excitation/emission wavelengths of 485 nm and 525 nm, respectively) was read on a Gemini fluorescence reader. Data was imported into Microsoft Excel (EXCEL is a registered trademark of Microsoft Corporation for a spreadsheet program) and used to calculate the EC50 concentration for each compound.
Compounds of the invention were tested using the screen as described in Example A, but substituting FRDA cells with Huntington's cells obtained from the Coriell Cell Repositories (Camden, N.J.; repository number GM 04281). The compounds were tested for their ability to rescue human dermal fibroblasts from Huntington's patients from oxidative stress.

[3] = tested on: human dermal fibroblasts from LHON patients; experiment: Rescue of BSO-stressed fibroblasts from LHON patients; conditions: Fibroblast, LHON fibroblasts GM03858, BSO stress, read-out: protection against LHON, EC50
Procedure: as §1, §2, §3, §4, §5
Compounds of the invention were screened as described in Example A, but substituting FRDA cells with Leber's Hereditary Optic Neuropathy (LHON) cells obtained from the Coriell Cell Repositories (Camden, N.J.; repository number GM03858). The compounds were tested for their ability to rescue human dermal fibroblasts from LHON patients from oxidative stress.

[4] = tested on: human dermal fibroblasts from Parkinson's disease patients; experiment: Rescue of BSO-stressed fibroblasts from Parkinson's disease patients; conditions: Fibroblast, PD fibroblasts AG20439, BSO stress, read-out: protection against PD, EC50
Procedure: as §1, §2, §3, §4, §5
Compounds of the invention were screened as described in Example A, but substituting FRDA cells with Parkinson's Disease (PD) cells obtained from the Coriell Cell Repositories (Camden, N.J.; repository number AG20439). The compounds were tested for their ability to rescue human dermal fibroblasts from Parkinson's disease patients from oxidative stress.

Measured: EC50

CC1=C(C)C(=O)C(c2ccc3ccccc3c2)=C(CCC(C)(C)O)C1=O [Example 13, 2-(3-Hydroxy-3-methylbutyl)-5,6-dimethyl-3-(naphthalen-2-yl)cyclohexa-2,5-diene-1,4-dione]
< 0.2 µM: all assays above

CC1=C(C)C(=O)C(c2ccc(Cl)cc2)=C(CCC(C)(C)O)C1=O [Example 15, 2-(4-Chlorophenyl)-3-(3-hydroxy-3-methylbutyl)-5,6-dimethylcyclohexa-2,5-diene-1,4-dione]
< 0.2 µM: all assays above

CCc1ccc(C2=C(CCC(C)(C)O)C(=O)C(C)=C(C)C2=O)cc1 [Example 16, 2-(4-Ethylphenyl)-3-(3-hydroxy-3-methylbutyl)-5,6-dimethylcyclohexa-2,5-diene-1,4-dione]
< 0.2 µM: all assays above

CC1=C(C)C(=O)C(c2cccc(C(F)(F)F)c2)=C(CCC(C)(C)O)C1=O [Example 17, 2-(3-Hydroxy-3-methylbutyl)-5,6-dimethyl-3-(3-(trifluoromethyl)phenyl)cyclohexa-2,5-diene-1,4-dione]
< 0.2 µM: all assays above

CC1=C(C)C(=O)C(c2ccc(C(C)(C)C)cc2)=C(CCC(C)(C)O)C1=O [Example 18, 2-(4-tert-Butylphenyl)-3-(3-hydroxy-3-methylbutyl)-5,6-dimethylcyclohexa-2,5-diene-1,4-dione]
< 0.2 µM: all assays above

CC1=C(C)C(=O)C(c2cccc(F)c2)=C(CCC(C)(C)O)C1=O [Example 20, 2-(3-Fluorophenyl)-3-(3-hydroxy-3-methylbutyl)-5,6-dimethylcyclohexa-2,5-diene-1,4-dione]
< 0.2 µM: all assays above

CC1=C(C)C(=O)C(CCC(C)(C)O)=C(CCCc2ccccc2)C1=O [Example 24, 2-(3-Hydroxy-3-methylbutyl)-5,6-dimethyl-3-(3-phenylpropyl)cyclohexa-2,5-diene-1,4-dione]
< 0.2 µM: all assays above
